{"source": "patent US6339104B1", "about": "“Therapeutic agent for primary biliary cirrhosis” (The City of Osaka, priority 1998, dated 2002)", "tested_on": "patient with primary biliary cirrhosis (stage IV in Scheuer classification)", "test": "Clinical effect of oral L-alanine in a patient with terminal-stage primary biliary cirrhosis", "assay_type": "in vivo, human", "protocol": "The clinical effect of L-alanine was examined in a patient with primary biliary cirrhosis. The patient was suffering from primary biliary cirrhosis in the terminal stages (stage IV in Scheuer classification). After their symptoms had appeared, 600 mg/day of ursodeoxycholic acid was orally administered as a therapeutic agent everyday. However, this treatment became ineffective and the results of biochemical tests also became worse. Under these conditions, 18 g/day of L-alanine was orally administered to the patient in three doses every day for two months. Before and after the administration of L-alanine, two weeks in total of the observation period was taken, and then eight weeks of the administration period was taken. The blood specimen was taken once a week to determine total serum bilirubin and transaminase (AST). By the administration of L-alanine, total serum bilirubin and transaminase were reduced. […] As the administration was finished, increase of both total serum bilirubin and transaminase was observed.", "key": {"[1]": {"details": "observation period after end of 18 g/day oral administration"}, "[2]": {"details": "patient, 18 g/day orally in three doses, eight weeks administration, weekly blood specimen"}}, "data": [{"smiles": "C[C@H](N)C(=O)O", "note": "[L-alanine]", "values": [{"measurement": "time of maximum effect after the start of the administration", "setting": "18 g/day orally, effect on total serum bilirubin and transaminase, lasted in the course of the administration", "value": "two"}, {"measurement": "therapeutic effect on the terminal case of primary biliary cirrhosis (symptoms)", "setting": "L-alanine 18 g/day orally, ursodeoxycholic acid 600 mg/day orally", "value": "excellent therapeutic effect"}, {"measurement": "total serum bilirubin after the administration was finished", "setting": "[1]", "value": "increase"}, {"measurement": "transaminase after the administration was finished", "setting": "[1]", "value": "increase"}, {"measurement": "total serum bilirubin", "setting": "[2]", "value": "reduced"}, {"measurement": "transaminase (AST)", "setting": "[2]", "value": "reduced"}]}]}
